Measured values published in PubChem BioAssay (NCI).
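Five compound concentrations were applied to cells in 96-well plates for 48 hours; endpoints were derived by simple linear interpolation of the resulting dose-response curve. GI50: concentration for 50% inhibition of growth. TGI: concentration producing complete growth inhibition.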

What was measured:
Experiment in all cases: NCI anticancer screen, dose series, 48 h
SK-OV-3 ovarian = test system: SK-OV-3 ovarian
OVCAR-3 ovarian = test system: OVCAR-3 ovarian
KM12 colon = test system: KM12 colon
BT-549 breast = test system: BT-549 breast
UO-31 renal = test system: UO-31 renal
DU-145 prostate = test system: DU-145 prostate
NCI-H226 lung = test system: NCI-H226 lung
HOP-62 NSCLC = test system: HOP-62 NSCLC
U251 CNS = test system: U251 CNS
HCC-2998 colon = test system: HCC-2998 colon

| Compound | TGI (SK-OV-3 ovarian) [µM] | TGI (OVCAR-3 ovarian) [µM] | TGI (KM12 colon) [µM] | TGI (BT-549 breast) [µM] | TGI (UO-31 renal) [µM] | TGI (DU-145 prostate) [µM] | TGI (NCI-H226 lung) [µM] | TGI (HOP-62 NSCLC) [µM] | TGI (U251 CNS) [µM] | GI50 (SK-OV-3 ovarian) [µM] | GI50 (KM12 colon) [µM] | GI50 (UO-31 renal) [µM] | GI50 (DU-145 prostate) [µM] | GI50 (HCC-2998 colon) [µM] | TGI (HCC-2998 colon) [µM] | GI50 (HOP-62 NSCLC) [µM] | GI50 (U251 CNS) [µM] | GI50 (OVCAR-3 ovarian) [µM] | GI50 (BT-549 breast) [µM] | GI50 (NCI-H226 lung) [µM] |
| --- | --- | --- | --- | --- | --- | --- | --- | --- | --- | --- | --- | --- | --- | --- | --- | --- | --- | --- | --- | --- |
| CCCCCCCCCCCCCCCCC(C(=O)O)C(O)(CC(=O)O)C(=O)O (stereo unspecified) | 36.1 | 35.8 | 37.3 | 51.3 | 45.4 | > 100 | 47.3 | 34.1 | 33.1 | – | – | – | – | – | – | – | – | – | – | – |
| CCCCCCn1c(-c2ccc(C(=O)O/N=C(\N)c3ccc(OC)cc3)cc2)nc(-c2ccccc2)c1-c1ccccc1 | > 100 | – | > 100 | – | 1.48 | 2.22 | – | 4.66 | 4.21 | 4.45 | 2.81 | 0.413 | 1.02 | 2.09 | 4.81 | 1.9 | 1.62 | – | – | – |
| Cc1cccc(C(C)(C)C)c1NC(=O)CC1C(=O)Nc2ccccc2S1=O (stereo unspecified) | – | > 100 | > 100 | – | > 100 | – | > 100 | > 100 | > 100 | – | – | – | – | – | > 100 | – | – | – | – | – |
| N=C(c1ccccc1)N1CCCCC1 | – | – | > 100 | – | > 100 | – | > 100 | > 100 | > 100 | – | – | – | – | – | > 100 | – | – | – | – | – |
| CC(C)=CC(=O)Cc1nc2ccccc2[nH]c1=O | > 100 | > 100 | > 100 | – | > 100 | – | > 100 | > 100 | > 100 | – | – | – | – | – | > 100 | – | – | – | – | – |
| C/C(=N\NC(N)=S)c1ccc(/C(C)=N/NC(N)=S)cc1 | > 100 | > 100 | > 100 | – | > 100 | – | > 100 | > 100 | > 100 | – | – | – | – | – | > 100 | – | – | – | – | – |
| O=[N+]([O-])c1ccc(Cc2nc3ccccc3s2)cc1 | > 100 | > 100 | > 100 | – | > 100 | – | > 100 | > 100 | > 100 | – | – | – | – | – | > 100 | – | – | – | – | – |
| C/C(=N\NC(N)=S)c1ccc2c(c1)OCO2 | > 100 | > 100 | > 100 | – | > 100 | – | > 100 | > 100 | > 100 | – | – | – | – | – | > 100 | – | – | – | – | – |
| c1ccc(-c2nc(Nc3ccc(-c4nc5ccccc5[nH]4)cc3)nc(N3CCOCC3)n2)cc1 | 4.23 | 2.98 | 3.19 | 3.9 | 2.91 | 2.49 | 4.58 | 3.52 | 1.76 | 2.11 | 1.62 | 1.32 | 1.21 | – | – | 1.73 | 0.535 | 1.52 | 1.98 | 2.4 |
| COc1ccc(C2(CN(C)C)COc3cc(OC)c(OC)cc3C2=O)cc1OC (stereo unspecified) | > 100 | > 100 | > 100 | – | > 100 | – | > 100 | > 100 | > 100 | – | – | – | – | – | > 100 | – | – | – | – | – |
| Clc1ccc(C2=Nc3ccccc3SC(c3ccc(Cl)c(Cl)c3)C2)c(Cl)c1 (stereo unspecified) | 52.1 | 26.1 | 24.2 | – | 28.1 | – | 37.4 | 18.2 | 32 | – | – | – | – | – | 27.8 | – | – | – | – | – |
| CCOC(=O)c1cc2c(cc1Cl)SC(N(c1ccc(F)cc1)S(=O)(=O)c1ccc(OC)cc1)=NS2(=O)=O | > 100 | 28.3 | 63.9 | – | 42.2 | 33.9 | > 100 | > 100 | 34.7 | 24.3 | 22.8 | 17.9 | 16.1 | 18.2 | 35.2 | 35.1 | 16.2 | 13.9 | – | 29.8 |
| O=S(=O)(O)C(F)(F)C(F)(F)C(F)(F)C(F)(F)F | > 100 | > 100 | > 100 | – | > 100 | – | – | > 100 | > 100 | – | – | – | – | – | > 100 | – | – | – | – | – |
| Cc1cc2c(C(C)C)c(O)c(O)c3coc(/c1=c1/c(C)cc4c(C(C)C)c(=O)c(=O)c5coc1c45)c32 | 33.7 | 16.6 | 14.9 | – | 31.1 | – | 22.9 | 23.7 | 14.3 | – | – | – | – | – | 14.8 | – | – | – | – | – |
| COc1ccc(Cl)cc1N1C(=O)C(Cl)=C(Nc2cccc(O)c2)C1=O | > 100 | 36.5 | > 100 | 46.2 | 26.6 | > 100 | – | 74.8 | 48 | 34.2 | 28.7 | 13.2 | 21.8 | – | – | 23.7 | 17.5 | 11.5 | 11.8 | – |
